# Measurements taken from patent US8685987B2, “Substituted [1,2,4]triazolo[1,5-a]pyrimidines and their use as potassium channel modulators” (Ataxion, Inc., priority 2009, dated 2014).
# Molecular target: T1, hSK1 channels (Homo sapiens, UniProt Q92952)
# T1 construct: expressed in transfected cells; host or cells: HEK293
# Assay: Whole-cell patch-clamp recording of SK current in HEK293 cells expressing hSK1 channels
# Assay type: cell-based
# Conditions: SK1 activation
# Source text: The compounds of the invention may be tested for their ability to modulate SK channels in vitro. Functional modulation can be determined by measuring the compound-induced change in SK current by the patch clamp technique as described in Strøbk et al.: “Pharmacological characterization of small-conductance Ca^2+-activated K channels expressed in HEK293 cells”, British Journal of Pharmacology (2000) 129, 991-999. From this type of measurements the potency of a given compound can be determined as e.g. Ki or IC50 values for blockers/inhibitors and EC50 values for openers/activators. Similar data can be obtained from other patch clamp configurations and from channels expressed endogenously in various cell lines.
# The ionic current through small-conductance Ca^2+-activated K^+ channels (SK channels, subtype 1) is recorded using the whole-cell configuration of the patch-clamp technique in a classic patch-clamp set-up using HEK293 tissue culture cells expressing hSK1 channels as described in e.g. WO 2006/100212.
# The SC100 value determined is defined as the Stimulating Concentration required for increasing the baseline current by 100%. The below SC100 values are an indication of the SK1 activating properties of the compounds of the invention.
row,Compound,The SC100 (Stimulating Concentration required for increasing the baseline current by 100%)
1,"N-{7-[1-(4-Chloro-2-methylphenoxy)-ethyl]-6-methyl-[1,2,4]triazolo[1,5-a]pyrimidin-2-yl}-N′-hydroxy-formamidine [Example 4]",0.20 µM
2,"CON=CNc1nc2nccc(C(C)Oc3ccc(Cl)cc3C)n2n1 (stereo not drawn) [Example A, N-{7-[1-(4-Chloro-2-methylphenoxy)ethyl]-[1,2,4]triazolo[1,5-a]pyrimidin-2-yl}-N′-methoxy-formamidine]",0.008 µM
3,"CON=CNc1nc2nccc(C(C)Oc3ccc(Br)cc3)n2n1 (stereo not drawn) [Example 1, N-{7-[1-(4-Bromophenoxy)ethyl]-[1,2,4]triazolo[1,5-a]pyrimidin-2-yl}-N′-methoxy-formamidine]",0.015 µM
4,"CON=CNc1nc2nccc(C(C)Oc3ccc(F)cc3)n2n1 (stereo not drawn) [Example B, N-{7-[1-(4-Fluorophenoxy)ethyl]-[1,2,4]triazolo[1,5-a]pyrimidin-2-yl}-N′-methoxy-formamidine]",0.075 µM
5,"CON=CNc1nc2nccc(C(C)Oc3ccc(Cl)cc3Cl)n2n1 (stereo not drawn) [Example 2, N-{7-[1-(2,4-Dichlorophenoxy)ethyl]-[1,2,4]triazolo[1,5-a]pyrimidin-2-yl}-N′-methoxy-formamidine]",0.005 µM
6,"Cc1cc(Cl)ccc1OC(C)c1ccnc2nc(NC=NOC(C)C)nn12 (stereo not drawn) [Example 6, N-{7-[1-(4-Chloro-2-methylphenoxy)ethyl]-[1,2,4]triazolo[1,5-a]pyrimidin-2-yl}-N′-isopropyloxy-formamidine]",0.40 µM
7,"CON=CNc1nc2nccc(C(C)(C)Oc3ccc(Cl)cc3C)n2n1 [Example 7, N-{7-[1-(4-Chloro-2-methylphenoxy)-1-methyl-ethyl]-[1,2,4]triazolo[1,5-a]pyrimidin-2-yl}-N′-methoxy-formamidine]",0.60 µM
8,"CCCON=CNc1nc2nccc(C(C)Oc3ccc(Cl)cc3C)n2n1 (stereo not drawn) [Example 5, N-{7-[1-(4-Chloro-2-methylphenoxy)ethyl]-[1,2,4]triazolo[1,5-a]pyrimidin-2-yl}-N′-propyloxy-formamidine]",0.003 µM
9,"CON=CNc1nc2nccc(C(C)Oc3ccc(Cl)cc3)n2n1 (stereo not drawn) [Example 3, N-{7-[1-(4-Chlorophenoxy)ethyl]-[1,2,4]triazolo[1,5-a]pyrimidin-2-yl}-N′-methoxy-formamidine]",0.04 µM
